Laboratory results from PMC4890880 (ACS infectious diseases, 2016).
Read-outs that look alike come from different tables or passages of the source.

How the values were obtained:
HepG2-A16-CD81EGFP cells [1] = experiment: cells; conditions: Homo sapiens, HepG2, read-out: % inhibition
HepG2-A16-CD81EGFP cells [2] = experiment: cells; conditions: Homo sapiens, HepG2, read-out: % inhibition; remark: listed apart in the source
HepG2-A16-CD81EGFP cells [3] = conditions: human, 50 uM
[4] = test system: Plasmodium berghei (Pb-Luc) exoerythrocytic-stage parasites; experiment: microbe, parasite or virus in culture
[5] = read-out: Inhibition% @ 50 uM rep1
[6] = read-out: Inhibition% @ 50 uM rep2

SMILES	inhibition at 50 µM (HepG2-A16-CD81EGFP cells [1]) [%]	inhibition at 50 µM (HepG2-A16-CD81EGFP cells [2]) [%]	HepG2 Tox% @ 50 uM rep1 (HepG2-A16-CD81EGFP cells [3]) [%]	inhibition at 50 µM [4, 5] [%]	inhibition at 50 µM [4, 6] [%]	HepG2 Tox% @ 50 uM rep2 (HepG2-A16-CD81EGFP cells [3]) [%]
CCCC(c1nnnn1C1CCCCC1)N1CCN(C(=O)c2ccco2)CC1 (stereo not drawn) [MMV666093]	-5.78	-2.45	-6	52	19	
COCCN(C(=O)Cc1cccs1)C(C(=O)NCc1ccc(OC)cc1)c1ccc(C(C)C)cc1 (stereo not drawn) [MMV666105]	98.8	99.9		104	105	100
COc1cccc(C2(C)Nc3ccccc3-c3nc4ccccc4n32)c1 (stereo not drawn) [MMV396719]	97	99.7		104	106	100
Cc1cc(N2CCN(C3CCCC3)CC2)n2c(nc3ccccc32)c1C#N [MMV006706]	-9.81	-11.2	-10	48	24	-11
CCOc1ccc(-c2nonc2NC(=O)c2cccc(C)c2)cc1OCC [MMV665805]	0.576	6.54		44	72	
COc1ccccc1N1CCN(C(CNS(=O)(=O)c2ccc(Cl)cc2)c2cccnc2)CC1 (stereo not drawn) [MMV665914]	49.3	59.7		96	96	
O=C(CCc1ccco1)NC1CCN(CC2(c3ccc(Cl)cc3)CCC2)CC1 [MMV666108]	54.1	67.1		101	102	
CCOc1cc(Br)c(C(C)NC(=O)c2cccc(OC)c2)cc1OCC (stereo not drawn) [MMV665796]	88.4	96.9		103	104	
O=C(Nc1ccsc1C(=O)NC1CCCCC1)c1ccc(F)cc1 [MMV665939]	25.8	35		71	43	
COc1ccc2c(=O)cc(C(Cl)(Cl)Cl)oc2c1 [MMV665820]	96.4	98.1		103	102	
O=C(Nc1ccc(Cl)cc1)N1CCN(c2ccc3nncn3n2)CC1 [MMV665917]	38.3	8.42		60	62	
CN1c2ccccc2N(C)C1c1ccc2c(c1)OCO2 [MMV666009]	81.6	81		102	105	
COc1ccc(C(=O)Nc2nonc2-c2ccc(OC)c(OC)c2)cc1Cl [MMV011567]	-1.34	2.69		58	80	
O=c1nc(C=Cc2ccc(Cl)cc2)oc2ccccc12 [MMV007977]	78.9	85.9		104	106	
COc1cccc(O)c1CN1CCC2(CCCN(Cc3ccc(F)cc3)C2)C1 (stereo not drawn) [MMV666061]	96.5	98.8		103	103	
COc1ccc(-c2nc3cc(Cc4ccc5[nH]c(-c6ccc(OC)cc6)nc5c4)ccc3[nH]2)cc1 [MMV007384]	96	99.2		104	105	
O=C(Nc1ccc(Cl)cc1C(=O)Nc1ccncc1)c1ccc(Cl)cc1Cl [MMV666057]	78.3	94.5		101	102	
FC(F)(F)c1cccc(Nc2nc(-c3ccccc3)nc3ncccc23)c1 [MMV665798]	95.3	98.3		103	104	
Oc1ccccc1CNCC12CC3CC(CC(C3)C1)C2 [MMV020788]	94	95.9		102	103	
CN(C)c1ccc(C=Cc2nc(=O)c3ccccc3o2)cc1 [MMV006309]	96.7	98.3		104	105	
CCOC(=O)c1ccc2nc(-c3ccccc3)cc(O)c2c1 [MMV006457]	78.2	82.5		102	104	
COc1ccc(Br)cc1C1Nc2ccc3ccccc3c2C2=C1C(=O)CC(c1ccccc1)C2 (stereo not drawn) [MMV020885]	69.1	75.1		102	102	
COc1ccc(C2Sc3ccccc3N=C3C2=C(O)c2ccccc23)cc1 (stereo not drawn) [MMV000563]	62.5	71.1		103	104	

SMILES	inhibition at 50 µM (HepG2-A16-CD81EGFP cells [1]) [%]	inhibition at 50 µM (HepG2-A16-CD81EGFP cells [2]) [%]	HepG2 Tox% @ 50 uM rep1 (HepG2-A16-CD81EGFP cells [3]) [%]	inhibition at 50 µM [4, 5] [%]	inhibition at 50 µM [4, 6] [%]	HepG2 Tox% @ 50 uM rep2 (HepG2-A16-CD81EGFP cells [3]) [%]
Oc1ccccc1CN1CCN(C(c2ccccc2)c2ccccc2)CC1 [MMV011795]	77.8	51.4		100	102	
Cc1ccc(Nc2nc(NCCO)c3ccccc3n2)cc1C [MMV001038]	94.2	96.1		102	102	
COc1ccc(-c2nonc2NC(=O)c2cccc(Cl)c2)cc1OC [MMV020660]	92	93.3		104	106	
Oc1ccc(Cl)cc1CNc1nc2ccccc2[nH]1 [MMV665850]	98.1	98.7		103	104	
CCn1c(SCC(=O)Nc2cc(C(F)(F)F)ccc2Cl)nc2ccccc2c1=O [MMV666103]	-3.72	-0.573		69	87	
CCOc1ccccc1CNC(=O)C1c2ccccc2C(=O)N(CC(C)C)C1c1cccs1 (stereo not drawn) [MMV000653]	90.2	94		104	106	
COc1ccc(-c2nc(NC(=O)CS(=O)(=O)c3ccc(F)cc3)sc2C)cc1 [MMV665915]	92.4	95.2		101	100	
Cc1cccc(Nc2nc(N)c3ccccc3n2)c1 [MMV019110]	91.6	92		99	98	
CCOC(=O)C1=C(c2ccccc2)N=c2sc(=Cc3cc(C)n(-c4ccc(F)cc4)c3C)c(=O)n2C1c1cccc(OC)c1OC (stereo not drawn) [MMV666601]	-7.05	8.55		84	87	
Cc1ccc(CN2CCC(C(=O)Nc3ccc(-c4cc5ccccc5[nH]4)cc3)CC2)o1 [MMV666071]	42.7	43.9		98	96	
CC1CCCCN1CCCNC(=O)c1ccc2c(c1)sc1nc(-c3ccc(F)cc3)cn12 (stereo not drawn) [MMV000634]	97	98.9		103	103	
CCOc1ccc(-c2nc(NC(=O)c3cccc(S(C)(=O)=O)c3)sc2C)cc1 [MMV665913]	60.5	62.9		95	98	
CCC1(C)CC(CCNCc2ccccc2O)(c2ccc(C)cc2)CCO1 (stereo not drawn) [MMV019406]	96.7	98.3		102	102	
CC1CCN(Cc2ccc(NC(=O)c3cc4ccc5cccnc5c4[nH]3)cc2)CC1 [MMV020549]	95.4	96.7		104	106	
O=C(NC1CCN(Cc2ccccc2)CC1)c1cc(-c2ccncc2)nc2ccc(Cl)cc12 [MMV020275]	89.1	90.6		52	39	
O=C1CC(O)(C(F)(F)C(F)(F)F)Oc2ccccc21 (stereo not drawn) [MMV000972]	96.7	97.9		103	105	
CSC1=NC(=Nc2c(C)cccc2C)C2(CCC(C(C)(C)C)CC2)N1c1ccc(Cl)cc1 (stereo not drawn) [MMV666596]	88.7	89.2		104	106	
Cc1cc(Nc2ccc3ccccc3c2)n2ncnc2n1 [MMV011099]	88.4	86.3		101	102	
CCCc1c(CC)c(=N)c2ccccc2n1C [MMV008416]	83.1	84		101	104	
CCN(CC)S(=O)(=O)c1ccc(-c2csc(Nc3ccc(C)c(C)c3)n2)cc1 [MMV009108]	72.2	80.9		97	96	
COc1cccc(-c2nn(C)c3sc(C(=O)NCCN4CCN(c5ccccc5F)CC4)cc23)c1 [MMV019064]	53.8	82.3		103	104	
COc1cc(SC)ccc1C(=O)N1CCCC(C)C1 (stereo not drawn) [MMV056726]	65.4	67.3		86	93	
Cc1c(C)n(CC(O)CNC2CCCCC2C)c2ccccc12 (stereo not drawn) [MMV665806]	31.3	47.6		90	92	
